# Assay results as given in patent US5246830A, “Enzymatic process for the determination of β-lactam antibiotics” (Ucb Bioproducts, S.A., priority 1990, dated 1993).
# Tests used:
# [1] = target: T1, enzyme R39 (Actinomadura sp. R39, UniProt P39045); assay: Hydrolysis of thioester-type substrate by enzyme R39 and its activation by D-amino acids; format: biochemical; conditions: for activating effect on the thioester hydrolysis reaction by enzyme R39: thioester-type substrate of formula I; for activity of enzyme R39 on the substrate: one unit hydrolyzes 1 micromole of substrate per minute at 47° C.
# T1 sequence (P39045 50-515): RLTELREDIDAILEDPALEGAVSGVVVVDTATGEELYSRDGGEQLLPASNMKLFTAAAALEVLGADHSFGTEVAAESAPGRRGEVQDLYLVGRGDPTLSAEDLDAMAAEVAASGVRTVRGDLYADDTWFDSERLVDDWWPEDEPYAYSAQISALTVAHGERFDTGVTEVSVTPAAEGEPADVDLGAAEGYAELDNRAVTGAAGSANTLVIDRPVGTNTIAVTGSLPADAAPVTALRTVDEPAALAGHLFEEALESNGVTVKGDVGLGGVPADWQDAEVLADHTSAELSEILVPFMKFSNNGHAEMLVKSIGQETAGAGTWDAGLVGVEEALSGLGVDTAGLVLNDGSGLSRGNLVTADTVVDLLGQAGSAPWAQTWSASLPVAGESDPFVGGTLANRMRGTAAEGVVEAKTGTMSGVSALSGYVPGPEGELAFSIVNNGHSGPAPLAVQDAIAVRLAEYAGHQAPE
# Text: In other words, in the presence of this activator, the rate of hydrolysis of the substrate by enzyme R39 is 40 times higher.
# [2] = target: T2, enzyme R39 (soluble D-alanyl-D-alanine carboxypeptidase produced by Actinomadura R39) (Actinomadura sp. R39, UniProt P39045); assay: Enzymatic determination of penicillin G in milk with [(N-phenylacetyl-D-alanyl)thio]-acetic acid as substrate (Example 4); format: biochemical; conditions: Example 4, Table IV
# T2 construct: added to milk or serum samples
# T2 sequence (P39045 50-515): as above
# Experimental: The process is the same as in example 3, except that, after the first incubation, 120 μl of an aqueous solution containing 5 mg/ml of [(N-phenylacetyl-D-alanyl)thio]-acetic acid are added.
# [3] = target: T2, enzyme R39 (soluble D-alanyl-D-alanine carboxypeptidase produced by Actinomadura R39); assay: Enzymatic determination of cephapirin in milk (Example 6); format: biochemical
# Experimental: The process is the same as in example 3, but the samples of 3 ml of milk contain known concentrations of cephapirin.
# [4] = target: T1, enzyme R39; conditions: about 20 μl milk, 3 picomoles enzyme R39, cited from earlier work
# [5] = tested on: cells or cell parts of Bacillus stearothermiphilus; conditions: enzyme-tagged antibiotic, visual colorimetric method; cited from earlier work
molecule,measurement,setting,value
CC[C@@H](N)C(=O)O [D-2-aminobutyric acid],activating effect on the thioester hydrolysis reaction by enzyme R39,[1],best activators
C[C@@H](N)C(=O)O [D-alanine],activating effect on the thioester hydrolysis reaction by enzyme R39,[1],best activators
N=C(N)NCCC[C@@H](N)C(=O)O [D-arginine],activating effect on the thioester hydrolysis reaction by enzyme R39,[1],best activators
N[C@H](Cc1c[nH]cn1)C(=O)O [D-histidine],activating effect on the thioester hydrolysis reaction by enzyme R39,[1],best activators
CSCC[C@@H](N)C(=O)O [D-methionine],activating effect on the thioester hydrolysis reaction by enzyme R39,[1],best activators
N[C@H](Cc1ccccc1)C(=O)O [D-phenylalanine],activating effect on the thioester hydrolysis reaction by enzyme R39,[1],best activators
N[C@H](CO)C(=O)O [D-serine],activating effect on the thioester hydrolysis reaction by enzyme R39,[1],best activators
N[C@H](Cc1c[nH]c2ccccc12)C(=O)O [D-tryptophan],activating effect on the thioester hydrolysis reaction by enzyme R39,[1],best activators
CC(C)[C@@H](N)C(=O)O [D-valine],activating effect on the thioester hydrolysis reaction by enzyme R39,[1],best activators
C[C@@H](NC(=O)c1ccccc1)C(=O)SCC(=O)O [[(N-benzoyl-D-alanyl)thio]-acetic acid],performance as substrate for enzyme R39,[1]; among thioesters of formula I,best results
same,activity of enzyme R39 on the substrate,[1]; in the absence of D-alanine,8 units per milligram of enzyme
same,activity of enzyme R39 on the substrate,[1]; in the presence of D-alanine,320 units per milligram of enzyme
C[C@@H](NC(=O)Cc1ccccc1)C(=O)SCC(=O)O [[(N-phenylacetyl-D-alanyl)thio]-acetic acid],process carried out with this compound as substrate,[2],successfully
CC(=O)OCC1=C(C(=O)O)N2C(=O)[C@@H](NC(=O)CSc3ccncc3)[C@H]2SC1 [cephapirin],Coloration,[3]; cephapirin 0.002 μg/ml in 3 ml milk,medium yellow
same,Coloration,[3]; cephapirin 0.003 μg/ml in 3 ml milk,pale yellow
same,Coloration,[3]; cephapirin 0.004 μg/ml in 3 ml milk,white
same,Coloration,[3]; cephapirin 0.006 μg/ml in 3 ml milk,white
same,cephapirin concentration in milk detected visually,[3]; in 15 minutes time,0.004 µg/mL
NCC(=O)O [glycine],activating effect on the thioester hydrolysis reaction by enzyme R39,[1],activating effect
penicillin,penicillin concentration in milk quantitatively determined (spectrophotometer),[4],0.02 I.U./ml
same,penicillin concentration in milk qualitatively determined by the visual method,[4]; in less than one hour,more than 0.09 I.U./ml
same,penicillin concentration threshold detected in milk,[5],0.05 IU/ml
